Data taken from patent US12318393B2, “Modulators of orphan nuclear receptors for NASH and other metabolic disorders” (Emory University, priority 2018, dated 2025).

Legend:
miR-122 and Gpase6 = assay: Modulation of RORα-regulated genes in healthy C57BL/6 mice; type: in vivo; settings: 7.5 mg/kg i.p. once
Method: Healthy C57BL/6 mice were injected i.p. once with 7.5 mg/kg Compound 1 or saline control. Mice were sacrificed at 1, 2, and 7 day time points post-injection. miR-122 and Gpase 6 mRNA levels were determined by qRT-PCR for each time point. MicroRNA levels were normalized to RNU6; plasma miR-122 was normalized to spiked in C. elegans miR-39; and mRNA levels were normalized to HPRT.
RNA extraction and quantitative Real-Time PCR analysis. Total RNA, including small RNAs, were isolated from 200 μL of plasma or culture media samples using the miRNeasy Mini kit (Qiagen, Valencia, CA, USA) with 2 minor modifications. First, 200 μl of plasma or culture media were lysed with 1 ml of Qiazol solution. Second, a 50 pmol/l of synthesized single strand Caenorhabditis elegans miRNA (cel-miR-39) was added as the spike-in control to monitor extraction efficiency. The remainder of the RNA extraction was performed according to the manufacturer's instructions. miRNAs were eluted with 30 μl of RNase-free water. Total RNA, including miRNAs, from cells or tissues were isolated using TRIzol reagent (Invitrogen, Carlsbad, CA, USA). cDNA was synthesized using the Quanta Biosciences qScript™ cDNA Synthesis Kit (95047-100) for mRNA analysis, and using the qScript™ microRNA cDNA Synthesis Kit (95107-100) for miRNAs analysis. qRT-PCR of miRNAs and mRNA was performed using the ABI 7900 HT Real-Time PCR System and a SYBR Green PCR Kit: Quanta Cat. #84018 and #84071 respectively. The fold expression and statistical significance were calculated using the 2-ΔΔ Ct method. All experiments were performed in triplicates.

[1] = Cellular toxicity assay in Huh-7 cells; type: cell-based; settings: human, read-out: Cytotoxicity (IC50, μM) Huh-7
Method: The toxicity of the compounds was assessed in human PBM, CEM (human lymphoblastoid), and Huh-7 cells, as described previously (see Schinazi R. F., Sommadossi J.-P., Saalmann V., Cannon D. L., Xie M.-Y., Hart G. C., Smith G. A. & Hahn E. F. Antimicrob. Agents Chemother. 1990, 34, 1061-67). Cycloheximide was included as positive cytotoxic control, and untreated cells exposed to solvent were included as negative controls. The cytotoxicity IC50 was obtained from the concentration-response curve using the median effective method described previously (see Chou T.-C. & Talalay P. Adv. Enzyme Regul. 1984, 22, 27-55; Belen'kii M. S. & Schinazi R. F. Antiviral Res. 1994, 25, 1-11).

CD4+ Th17 cells = assay: Modulation of Th17 populations in human PBMCs (flow cytometry); type: cell-based; settings: 10 μM, 3 day assay
Method: Human peripheral blood mononuclear cells (PBMCs) were isolated from four healthy donors. Four experiments were conducted and analyzed by flow cytometry over 3 day assay. The control group had no drug treatment, a second were treated with 10 μM Compound 1, a third group was stimulated with PHA/IL-2 without treatment, and the fourth group was stimulated with PHA/IL-2 and incubated with 10 μM Compound 1. […] Further, Compound 1 has no effect on Th17 populations in the absence of PHA/IL-2 stimulation.

[2] = test system: C57BL/6 mice fed with HFD; assay: Insulin tolerance test in HFD-fed C57BL/6 mice; type: in vivo; settings: 15 mg/kg 3 times a week for 3 weeks
Method: At 4 months of age, an insulin tolerance test was performed on fasted C57BL/6 male mice following HFD feeding for 9 weeks following Compound 1 or saline with DMSO injections. Mice received an i.p. injection of human insulin (Actrapid) at a dosage of 0.88 units/kg followed by glucose checks every 20 minutes. […] Glucose measurements were assessed on blood from the tail following a tail snip at indicated time-points using a blood glucometer (Accu-Chek) and test strips (Accu-Chek).
Experimental design: C57BL/6 mice fed for 6 weeks with HFD were injected with 15 mg/kg Compound 1 (or saline+DMSO) 3 times a week for 3 weeks (n=6). Whole-blood glucose levels during an insulin tolerance test (ITT) in HFD fed Compound 1-treated mice vs. HFD-fed saline-treated mice and normal-diet fed mice (control ND); minutes indicate time after insulin injection. N.s.=not significant.

SMILES: O=C1Nc2cc(C(=O)N3CCC(Cc4ccccc4)CC3)ccc2Nc2ccccc21 [Compound 1]
- miR-18 and miR-126 levels (controls) (miR-122 and Gpase6; over 7 days): not affected
- Gpase6 mRNA (RORα-regulated gene) (miR-122 and Gpase6; up to 7 days post-injection): significantly up-regulated
- miR-122 levels in plasma and liver (miR-122 and Gpase6; up to 7 days post-injection): increased
- IC50 [1]: 10.4 µM
- total viability of CD4+ T cells (CD4+ Th17 cells; even under PHA/IL-2 stimulation): no effect
- Th17 total population, presence of PHA/IL-2 stimulation (CD4+ Th17 cells; relative to vehicle-control): decreases
- Th17 populations, absence of PHA/IL-2 stimulation (CD4+ Th17 cells; unstimulated): no effect
- insulin sensitivity compared to the untreated cohort [2]: improves
- blood glucose in insulin tolerance test after 100 minutes ([2]; 100 minutes after insulin): 70%
- blood glucose, initial decrease in insulin tolerance test ([2]; after 45 minutes post-injection of insulin): approximately 55%
